From PubChem BioAssay AID212 (DTP/NCI, 2004)
Several values for one entry are separate records, joined by “and”; a condition that tells them apart may be missing. Equal values may be shown once. Records with an inconclusive call do not appear.

Tested on: BDF1 mice, colon carcinoma 38 sc, T/C %
Assay: NCI In Vivo Anticancer Drug Screen. Data for tumor model Colon Carcinoma 38 (subcutaneous) in B6D2F1 (BDF1) mice
Settings: endpoint: median tumor weight (est.), higher = larger tumour
Outline: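 T/C readout: treated group (T) measurement over vehicle control group (C) measurement. Endpoint is survival or tumor size in mice bearing a transplanted tumor.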

[1] = dose: 1.0 mg/kg/injection, schedule: Q07DX002 (ip), vehicle: water
[2] = dose: 2.0 mg/kg/injection, schedule: Q07DX002 (ip), vehicle: water
[3] = dose: 25.0 mg/kg/injection, schedule: Q07DX002 (ip), vehicle: Klucel (hydroxypropylcellulose) (HPC)
[4] = dose: 12.5 mg/kg/injection, schedule: Q07DX002 (ip), vehicle: saline with Tween-80
[5] = dose: 25.0 mg/kg/injection, schedule: Q07DX002 (ip), vehicle: saline with Tween-80
[6] = dose: 200.0 mg/kg/injection, schedule: Q07DX002 (ip), vehicle: saline with Tween-80
[7] = dose: 50.0 mg/kg/injection, schedule: Q07DX002 (ip), vehicle: saline with Tween-80
[8] = dose: 100.0 mg/kg/injection, schedule: Q07DX002 (ip), vehicle: saline with Tween-80
[9] = dose: 50.0 mg/kg/injection, schedule: Q07DX002 (ip), vehicle: Klucel (hydroxypropylcellulose) (HPC)
[10] = dose: 100.0 mg/kg/injection, schedule: Q07DX002 (ip), vehicle: Klucel (hydroxypropylcellulose) (HPC)
[11] = dose: 50.0 mg/kg/injection, schedule: Q07DX003 (ip), vehicle: saline

Compound: CC1=C2CC(C)(C)/C=C\C(=O)/C(C)=C\C3=C[C@H](C)C[C@]3(O2)C1=O
- T/C (dose: 1.5 mg/kg/injection, schedule: Q07DX002 (ip), vehicle: Klucel (hydroxypropylcellulose) (HPC)): 80 % of control
- T/C (dose: 3.0 mg/kg/injection, schedule: Q07DX002 (ip), vehicle: Klucel (hydroxypropylcellulose) (HPC)): 100 % of control
- T/C (dose: 6.0 mg/kg/injection, schedule: Q07DX002 (ip), vehicle: Klucel (hydroxypropylcellulose) (HPC)): 157 % of control

Compound: COc1cccc2c1C(=O)c1c(O)c3c(c(O)c1C2=O)C[C@@](O)(C(C)=O)C[C@@H]3OC1CC(N)C(O)C(C)O1 (stereo partly specified)
- T/C (dose: 0.5 mg/kg/injection, schedule: Q07DX002 (ip), vehicle: water): 75 % of control
- T/C (dose: 0.5 mg/kg/injection, schedule: Q07DX003 (ip), vehicle: saline): 62 % of control and 76 % of control
- T/C [1]: 230 % of control
- T/C (dose: 1.0 mg/kg/injection, schedule: Q07DX003 (ip), vehicle: saline): 55 % of control and 76 % of control
- T/C [2]: 117 % of control
- T/C (dose: 2.0 mg/kg/injection, schedule: Q07DX003 (ip), vehicle: saline): 78 % of control and 91 % of control

Compound: Cc1c(N)nc([C@H](CC(N)=O)NC[C@H](N)C(N)=O)nc1C(=O)N[C@H](C(=O)N[C@H](C)[C@@H](O)[C@H](C)C(=O)N[C@H](C(=O)NCCc1nc(-c2nc(C(=O)NCCC[S+](C)C)cs2)cs1)[C@@H](C)O)C(OC1OC(CO)C(O)C(O)C1OC1OC(CO)C(O)C(OC(N)=O)C1O)c1cnc[nH]1 (stereo partly specified)
- T/C (dose: 3.0 mg/kg/injection, schedule: Q07DX003 (ip), vehicle: saline): 62 % of control
- T/C (dose: 6.0 mg/kg/injection, schedule: Q07DX003 (ip), vehicle: saline): 88 % of control
- T/C (dose: 12.0 mg/kg/injection, schedule: Q07DX003 (ip), vehicle: saline): 63 % of control
- T/C (dose: 24.0 mg/kg/injection, schedule: Q07DX003 (ip), vehicle: saline): 85 % of control
- T/C (dose: 48.0 mg/kg/injection, schedule: Q07DX003 (ip), vehicle: saline): 60 % of control

Compound: C1OC1C1CO1 (stereo unspecified)
- T/C (dose: 10.0 mg/kg/injection, schedule: Q07DX002 (ip), vehicle: saline): 99 % of control and 107 % of control
- T/C (dose: 20.0 mg/kg/injection, schedule: Q07DX002 (ip), vehicle: saline): 119 % of control and 120 % of control
- T/C (dose: 40.0 mg/kg/injection, schedule: Q07DX002 (ip), vehicle: saline): 96 % of control

Compound: Cn1c(=O)c2ncnnc2n(C)c1=O
- T/C (dose: 3.12 mg/kg/injection, schedule: Q07DX002 (ip), vehicle: Klucel (hydroxypropylcellulose) (HPC)): 75 % of control
- T/C (dose: 6.25 mg/kg/injection, schedule: Q07DX002 (ip), vehicle: Klucel (hydroxypropylcellulose) (HPC)): 84 % of control
- T/C (dose: 12.5 mg/kg/injection, schedule: Q07DX002 (ip), vehicle: Klucel (hydroxypropylcellulose) (HPC)): 78 % of control
- T/C [3]: 62 % of control

Compound: Oc1cc2c3c(c1)c1cc4c(cc1c[n+]3CC2)OCO4
- T/C (dose: 3.12 mg/kg/injection, schedule: Q07DX002 (ip), vehicle: water): 102 % of control
- T/C (dose: 6.25 mg/kg/injection, schedule: Q07DX002 (ip), vehicle: water): 77 % of control and 95 % of control
- T/C (dose: 25.0 mg/kg/injection, schedule: Q07DX002 (ip), vehicle: water): 71 % of control
- T/C (dose: 50.0 mg/kg/injection, schedule: Q07DX002 (ip), vehicle: water): 67 % of control and 71 % of control

Compound: CC(=O)Nc1ccc(C(=O)C=O)cc1
- T/C [4]: 62 % of control and 78 % of control
- T/C [5]: 87 % of control and 100 % of control
- T/C [6]: 92 % of control

Compound: CN=S(=O)(OCCCCCOS(=O)(=NC)c1ccccc1)c1ccccc1 (stereo unspecified)
- T/C [4]: 58 % of control
- T/C [5]: 74 % of control
- T/C [7]: 69 % of control
- T/C [6]: 59 % of control

Compound: CNc1nc(NC)nc(NC)n1
- T/C (dose: 12.5 mg/kg/injection, schedule: Q07DX003 (ip), vehicle: Klucel (hydroxypropylcellulose) (HPC)): 105 % of control
- T/C (dose: 50.0 mg/kg/injection, schedule: Q07DX003 (ip), vehicle: Klucel (hydroxypropylcellulose) (HPC)): 111 % of control
- T/C (dose: 100.0 mg/kg/injection, schedule: Q07DX003 (ip), vehicle: Klucel (hydroxypropylcellulose) (HPC)): 109 % of control
- T/C (dose: 200.0 mg/kg/injection, schedule: Q07DX003 (ip), vehicle: Klucel (hydroxypropylcellulose) (HPC)): 86 % of control

Compound: CC(C)[NH-].CC(C)[NH-].O.O.[Cl][Pt+2][Cl]
- T/C (dose: 3.12 mg/kg/injection, schedule: Q07DX003 (ip), vehicle: dextrose): 90 % of control
- T/C (dose: 6.25 mg/kg/injection, schedule: Q07DX002 (ip), vehicle: dextrose): 41 % of control
- T/C (dose: 12.5 mg/kg/injection, schedule: Q07DX002 (ip), vehicle: dextrose): 81 % of control
- T/C (dose: 25.0 mg/kg/injection, schedule: Q07DX002 (ip), vehicle: dextrose): 39 % of control
- T/C (dose: 25.0 mg/kg/injection, schedule: Q07DX003 (ip), vehicle: dextrose): 52 % of control

Compound: CN(C)P(=O)(Oc1ccccc1)N(C)C
- T/C [7]: 68 % of control
- T/C [8]: 62 % of control
- T/C [6]: 86 % of control

Compound: O=C1C2(Cl)C3(Cl)C4(Cl)C(Cl)(Cl)C5(Cl)[C@]3(Cl)C1(Cl)[C@]5(Cl)C24Cl (stereo partly specified)
- T/C [3]: 88 % of control
- T/C [9]: 75 % of control
- T/C [10]: 44 % of control

Compound: NC(=O)Nc1cc(NC(N)=O)cc(N(CCCl)CCCl)c1
- T/C (dose: 10.0 mg/kg/injection, schedule: Q07DX002 (ip), vehicle: Klucel (hydroxypropylcellulose) (HPC)): 89 % of control
- T/C (dose: 20.0 mg/kg/injection, schedule: Q07DX002 (ip), vehicle: Klucel (hydroxypropylcellulose) (HPC)): 68 % of control
- T/C (dose: 40.0 mg/kg/injection, schedule: Q07DX002 (ip), vehicle: Klucel (hydroxypropylcellulose) (HPC)): 96 % of control

Compound: COc1ccc2[nH]c3ccc4cc[n+](CCN5CCC(C6CCN(CC[n+]7ccc8ccc9[nH]c%10ccc(OC)cc%10c9c8c7)CC6)CC5)cc4c3c2c1
- T/C [3]: 79 % of control
- T/C [9]: 70 % of control
- T/C [10]: 56 % of control

Compound: Cn1ccc(=Nc2ccc(NC(=O)c3ccc(N=c4ccn(C)c5ccc([N+](=O)[O-])cc45)cc3[N+](=O)[O-])cc2)cc1
- T/C [5]: 99 % of control
- T/C [7]: 60 % of control
- T/C [8]: 105 % of control
- T/C [6]: 90 % of control
- T/C (dose: 400.0 mg/kg/injection, schedule: Q07DX002 (ip), vehicle: saline with Tween-80): 29 % of control
- T/C (dose: 800.0 mg/kg/injection, schedule: Q07DX002 (ip), vehicle: saline with Tween-80): 67 % of control

Compound: NC(Cc1ccc(N(CCCl)CCCl)cc1)C(=O)O (stereo unspecified)
- T/C (dose: 1.0 mg/kg/injection, schedule: Q07DX002 (ip), vehicle: Klucel (hydroxypropylcellulose) (HPC)): 71 % of control
- T/C [1]: 84 % of control
- T/C [2]: 97 % of control
- T/C (dose: 4.0 mg/kg/injection, schedule: Q07DX002 (ip), vehicle: water): 59 % of control
- T/C (dose: 8.0 mg/kg/injection, schedule: Q07DX002 (ip), vehicle: Klucel (hydroxypropylcellulose) (HPC)): 47 % of control and 51 % of control and 53 % of control
- T/C (dose: 8.0 mg/kg/injection, schedule: Q07DX002 (ip), vehicle: water): 37 % of control
- T/C (dose: 16.0 mg/kg/injection, schedule: Q07DX002 (ip), vehicle: Klucel (hydroxypropylcellulose) (HPC)): 9 % of control and 14 % of control

Compound: Nc1nncs1
- T/C (dose: 12.5 mg/kg/injection, schedule: Q07DX002 (ip), vehicle: saline): 71 % of control
- T/C (dose: 25.0 mg/kg/injection, schedule: Q07DX002 (ip), vehicle: saline): 114 % of control
- T/C (dose: 50.0 mg/kg/injection, schedule: Q07DX002 (ip), vehicle: saline): 78 % of control
- T/C [11]: 74 % of control
- T/C (dose: 100.0 mg/kg/injection, schedule: Q07DX002 (ip), vehicle: saline): 68 % of control
- T/C (dose: 100.0 mg/kg/injection, schedule: Q07DX003 (ip), vehicle: saline): 78 % of control and 79 % of control
- T/C (dose: 200.0 mg/kg/injection, schedule: Q07DX002 (ip), vehicle: saline): 53 % of control
- T/C (dose: 200.0 mg/kg/injection, schedule: Q07DX003 (ip), vehicle: saline): 58 % of control and 74 % of control
- T/C (dose: 400.0 mg/kg/injection, schedule: Q07DX002 (ip), vehicle: saline): 65 % of control
- T/C (dose: 400.0 mg/kg/injection, schedule: Q07DX003 (ip), vehicle: saline): 35 % of control and 38 % of control
- T/C (dose: 800.0 mg/kg/injection, schedule: Q07DX003 (ip), vehicle: saline): 51 % of control and 53 % of control

Compound: [N-]=[N+]=CC(=O)CCC(N)C(=O)O (stereo unspecified)
- T/C (dose: 0.78 mg/kg/injection, schedule: Q07DX003 (ip), vehicle: saline): 57 % of control
- T/C (dose: 1.56 mg/kg/injection, schedule: Q07DX003 (ip), vehicle: saline): 48 % of control
- T/C (dose: 3.13 mg/kg/injection, schedule: Q07DX003 (ip), vehicle: saline): 73 % of control
- T/C [11]: 10 % of control
